The text below walks through data of patent US7982043B2, “Protein tyrosine kinase enzyme inhibitors” (Wyeth LLC, priority 2003, dated 2011).

≈ marks a conversion by molar mass, not a printed value. Where only a bound is given, the exact number is not on record here.

Assay type in all cases: cell-based
Assay [1] has as its target mouse fibroblast cell line transfected with the HER-2 oncogene (3T3/neu) (UniProt P04626, cells depend on it, species not given). Put plainly: Cell proliferation assay (SRB), 3T3/neu. As to conditions: EGFR −, Her-2 +++; 2 days, SRB; read-out: CELL IC50 3T3/NEU (converted).
The subject of the next assay is SW620 cells. Briefly: Cell proliferation assay (SRB), SW620. As to conditions: Homo sapiens, SW-620, 48 h; EGFR −, Her-2 −; 2 days, SRB; read-out: CELL IC50 SW620.
The test system of another assay is A431 cells. Briefly: Cell proliferation assay (SRB), A431. The following applies: Homo sapiens, A-431, 48 h; EGFR +++, Her-2 +; 2 days, SRB; read-out: CELL IC50 A431.
For another assay, the system named is SK-Br-3 cells. Put plainly: Cell proliferation assay (SRB), SK-Br-3. The following applies: Homo sapiens, SK-BR-3, 48 h; EGFR −, Her-2 +++; 2 days, SRB; read-out: CELL IC50 SKBr3.

With `CCOc1cc2ncc(C#N)c(Nc3ccc4c(c3)OCCO4)c2cc1OCC` [Example 23, 4-(2,3-Dihydro-benzo[1,4]dioxin-6-ylamino)-6,7-diethoxy-quinoline-3-carbonitrile], the GI50 in assay [1] was 958 nM. The same measure, in the same setting: in the case of `COCCOc1cc2ncc(C#N)c(Nc3ccc4cn[nH]c4c3)c2cc1OCCOC` [Example 24, 4-(1H-Indazol-6-ylamino)-6,7-bis-(2-methoxy-ethoxy)-quinoline-3-carbonitrile] it was > 11500 nM; in that of `CCOc1cc2ncc(C#N)c(Nc3ccc4c(=O)[nH][nH]c(=O)c4c3)c2cc1OCC` [Example 25, 4-(1,4-Dioxo-1,2,3,4-tetrahydro-phthalazin-6-ylamino)-6,7-diethoxy-quinoline-3-carbonitrile], > 12000 nM. For orientation: IC50 means the concentration that inhibits the measured activity by half. Consider `CCOc1cc2ncc(C#N)c(Nc3ccc4c(c3)CCC4)c2cc1OCC` [Example 26, 6,7-Diethoxy-4-(indan-5-ylamino)-quinoline-3-carbonitrile], for which the IC50 in the assay on SW620 cells was determined as 0.294 µg/mL (≈ 0.787 µM). In assay [1], the GI50 was 53 nM.

For `CCOc1cc2ncc(C#N)c(Nc3ccc4[nH]c(=O)oc(=O)c4c3)c2cc1OCC` [Example 27, 4-(2,4-Dioxo-1,4-dihydro-2H-benzo[d][1,3]oxazin-6-ylamino)-6,7-diethoxy-quinoline-3-carbonitrile], the GI50 in assay [1] was 11000 nM. Turning to `CCOc1cc2ncc(C#N)c(Nc3ccc4c(c3)CCC4=O)c2cc1OCC` [Example 28, 6,7-Diethoxy-4-(1-oxo-indan-5-ylamino)-quinoline-3-carbonitrile], the half-maximal inhibitory concentration (IC50) in the assay with A431 cells came out at 0.0181 µg/mL (≈ 0.0467 µM); in the assay on SW620 cells, 0.0244 µg/mL (≈ 0.063 µM). Moreover, the GI50 in assay [1] was 80.3 nM. With `CCOc1cc2ncc(C#N)c(Nc3ccc4c(c3)C(=O)OC4)c2cc1OCC` [Example 29, 6,7-Diethoxy-4-(3-oxo-1,3-dihydro-isobenzofuran-5-ylamino)-quinoline-3-carbonitrile], in assay [1], the GI50 was 8480 nM. The same measure, in the same setting: in the case of `CCOc1cc2ncc(C#N)c(Nc3ccc4cn[nH]c4c3)c2cc1OC` [Example 31, 7-Ethoxy-4-(1H-indazol-6-ylamino)-6-methoxy-quinoline-3-carbonitrile] it was 74.3 nM. Same read-out and setting: in the case of `CCOc1cc2c(Nc3ccc4cn[nH]c4c3)c(C#N)cnc2cc1OC` [Example 32, 6-Ethoxy-4-(1H-indazol-6-ylamino)-7-methoxy-quinoline-3-carbonitrile] it was 13400 nM; in that of `CCOc1cc2ncc(C#N)c(Nc3ccc4c(c3)C(=O)NCC(=O)N4C)c2cc1OCC` [Example 33, 6,7-Diethoxy-4-(1-methyl-2,5-dioxo-2,3,4,5-tetrahydro-1H-benzo[e][1,4]diazepin-7-ylamino)-quinoline-3-carbonitrile], > 11200 nM. For `COc1cc2c(Nc3ccc(Sc4nccn4C)c(Cl)c3)c(C#N)cnc2cc1OCCCN1CCOCC1` [Example 51, 4-{3-chloro-4-[(1-methyl-1H-imidazol-2-yl)sulfanyl]anilino}-6-methoxy-7-[3-(4-morpholinyl)propoxy]-3-quinolinecarbonitrile], the IC50 in the assay on A431 cells is 0.775 µg/mL (≈ 1.37 µM); in the assay with SW620 cells, 2.18 µg/mL (≈ 3.86 µM); in the assay on SK-Br-3 cells, 0.32 µg/mL (≈ 0.566 µM). For the same compound, the GI50 in assay [1] is 347 nM. Taken in the same sequence, the figures for `COc1cc2c(Nc3ccc(Sc4nccn4C)c(Cl)c3)c(C#N)cnc2cc1OCCCn1ccnn1` [Example 73, 4-{3-chloro-4-[(1-methyl-1H-imidazol-2-yl)sulfanyl]anilino}-6-methoxy-7-[3-(1H-1,2,3-triazol-1-yl)propoxy]-3-quinolinecarbonitrile] were 1.83 µg/mL (≈ 3.35 µM), 3.69 µg/mL (≈ 6.75 µM), 0.104 µg/mL (≈ 0.19 µM) and 1780 nM.
